Data taken from US9279003B2, “Analogs of sodium channel peptide toxin” (priority 2010, dated 2016).
Where a SMILES comes first, the peptide text is derived from it. Bridges are numbered along the chain shown (N, C = ends). [ ]: non-standard residue; d: D form. NMeL = CN[C@@H](CC(C)C)C(=O)O; αMeL = CC(C)C[C@](C)(N)C(=O)O

Columns and labels:
Nav1.2 (rBIIa) = assay type: cell-based, rat
human Nav1.7 = human Nav1.7 (Homo sapiens, UniProt Q15858); assay: cell-based; assay type: cell-based
Sequence of human Nav1.7 (Q15858 other isoform, or with tags, fused parts or gaps): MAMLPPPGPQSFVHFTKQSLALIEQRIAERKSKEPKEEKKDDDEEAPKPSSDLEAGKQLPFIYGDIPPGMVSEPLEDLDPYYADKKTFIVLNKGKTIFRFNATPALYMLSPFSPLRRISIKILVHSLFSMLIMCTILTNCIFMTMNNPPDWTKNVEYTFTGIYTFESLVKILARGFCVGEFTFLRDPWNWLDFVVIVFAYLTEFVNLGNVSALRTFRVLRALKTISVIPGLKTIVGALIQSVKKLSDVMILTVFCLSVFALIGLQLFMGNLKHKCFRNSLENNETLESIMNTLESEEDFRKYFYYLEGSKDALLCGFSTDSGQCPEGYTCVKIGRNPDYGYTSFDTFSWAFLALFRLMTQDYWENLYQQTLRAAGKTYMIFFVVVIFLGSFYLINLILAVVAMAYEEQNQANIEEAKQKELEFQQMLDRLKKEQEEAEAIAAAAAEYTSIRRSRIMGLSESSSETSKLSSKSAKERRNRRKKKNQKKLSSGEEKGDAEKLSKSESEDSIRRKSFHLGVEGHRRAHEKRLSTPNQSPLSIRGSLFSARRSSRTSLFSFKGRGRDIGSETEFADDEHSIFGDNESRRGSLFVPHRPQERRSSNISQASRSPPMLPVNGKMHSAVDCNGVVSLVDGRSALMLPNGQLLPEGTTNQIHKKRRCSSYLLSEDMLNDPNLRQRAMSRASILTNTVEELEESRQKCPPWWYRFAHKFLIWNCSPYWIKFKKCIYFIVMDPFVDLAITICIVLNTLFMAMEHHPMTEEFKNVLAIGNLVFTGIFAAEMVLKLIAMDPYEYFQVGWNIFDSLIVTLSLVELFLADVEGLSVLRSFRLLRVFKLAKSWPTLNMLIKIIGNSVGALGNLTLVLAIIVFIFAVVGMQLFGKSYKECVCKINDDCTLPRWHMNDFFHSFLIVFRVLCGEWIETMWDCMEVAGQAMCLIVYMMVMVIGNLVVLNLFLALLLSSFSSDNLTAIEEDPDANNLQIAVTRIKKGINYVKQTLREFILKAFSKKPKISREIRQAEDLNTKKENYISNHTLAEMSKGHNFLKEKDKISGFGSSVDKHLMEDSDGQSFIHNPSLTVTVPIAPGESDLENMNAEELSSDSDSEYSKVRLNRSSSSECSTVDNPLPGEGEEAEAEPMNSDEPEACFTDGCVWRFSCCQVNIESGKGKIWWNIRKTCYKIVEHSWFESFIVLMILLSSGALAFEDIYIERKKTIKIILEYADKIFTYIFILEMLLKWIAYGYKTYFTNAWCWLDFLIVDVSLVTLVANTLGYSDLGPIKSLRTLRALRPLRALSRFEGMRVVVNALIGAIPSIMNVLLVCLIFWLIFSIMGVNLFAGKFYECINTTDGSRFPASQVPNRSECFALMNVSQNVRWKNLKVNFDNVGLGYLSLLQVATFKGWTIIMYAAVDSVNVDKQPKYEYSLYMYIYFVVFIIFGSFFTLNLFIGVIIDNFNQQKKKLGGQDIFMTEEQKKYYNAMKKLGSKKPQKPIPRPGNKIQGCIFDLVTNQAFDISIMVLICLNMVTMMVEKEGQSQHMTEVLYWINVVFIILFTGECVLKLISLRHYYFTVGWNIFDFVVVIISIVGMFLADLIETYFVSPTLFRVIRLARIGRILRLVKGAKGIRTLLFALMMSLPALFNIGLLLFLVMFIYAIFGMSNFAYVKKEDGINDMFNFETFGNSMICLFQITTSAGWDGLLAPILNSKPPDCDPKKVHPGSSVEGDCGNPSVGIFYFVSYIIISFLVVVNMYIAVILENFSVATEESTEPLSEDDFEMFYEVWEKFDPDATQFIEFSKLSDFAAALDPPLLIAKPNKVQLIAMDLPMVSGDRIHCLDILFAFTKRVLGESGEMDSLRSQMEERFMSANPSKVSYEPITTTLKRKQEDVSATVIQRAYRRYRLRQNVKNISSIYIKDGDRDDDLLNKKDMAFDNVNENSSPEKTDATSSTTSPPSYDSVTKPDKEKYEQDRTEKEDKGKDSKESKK

| SMILES | IC50 (Nav1.2 (rBIIa)) [µM] | IC50 (human Nav1.7) [µM] |
| --- | --- | --- |
| CC[C@H](C)[C@H](NC(=O)[C@H](CC(C)C)NC(=O)[C@H](CCCCN)NC(=O)[C@H](CCCCN)NC(=O)[C@H](CCCCN)NC(=O)[C@@H]1CSSC[C@@H]2NC(=O)[C@H](CCCCN)NC(=O)[C@H](CCCNC(=N)N)NC(=O)[C@H](C)NC(=O)[C@H](CO)NC(=O)[C@H](CC(=O)O)NC(=O)[C@@H]3CSSC[C@H](NC(=O)[C@H](C(C)C)NC(=O)[C@H](CC(C)C)NC(=O)CNC(=O)[C@H](CCC(=O)O)NC(=O)[C@H](CSSC[C@H](NC(=O)[C@@H](N)Cc4ccc(O)cc4)C(=O)N[C@@H](CCC(N)=O)C(=O)N[C@@H](CCCCN)C(=O)N[C@@H](Cc4c[nH]c5ccccc45)C(=O)N[C@@H](CCSC)C(=O)N[C@@H](Cc4c[nH]c5ccccc45)C(=O)N[C@@H]([C@@H](C)O)C(=O)N3)NC2=O)C(=O)N[C@@H](CCCNC(=N)N)C(=O)N[C@@H](CC(C)C)C(=O)N[C@@H](Cc2c[nH]c3ccccc23)C(=O)N1)C(=O)O [compound 10] (H-YCQKWMWTCDSARKCCEGLVCRLWCKKKLI-OH; disulfide 2-16, 9-21, 15-25) | 0.098 ± 0.01 | 0.004 |
| CC[C@H](C)[C@H](NC(=O)[C@](C)(CC(C)C)NC(=O)[C@H](CCCCN)NC(=O)[C@H](CCCCN)NC(=O)[C@H](CCCCN)NC(=O)[C@@H]1CSSC[C@@H]2NC(=O)[C@H](CCCCN)NC(=O)[C@H](CCCNC(=N)N)NC(=O)[C@H](C)NC(=O)[C@H](CO)NC(=O)[C@H](CC(=O)O)NC(=O)[C@@H]3CSSC[C@H](NC(=O)[C@H](C(C)C)NC(=O)[C@H](CC(C)C)NC(=O)CNC(=O)[C@H](CCC(=O)O)NC(=O)[C@H](CSSC[C@H](NC(=O)[C@@H](N)Cc4ccc(O)cc4)C(=O)N[C@@H](CCC(N)=O)C(=O)N[C@@H](CCCCN)C(=O)N[C@@H](Cc4c[nH]c5ccccc45)C(=O)N[C@@H](CCSC)C(=O)N[C@@H](Cc4c[nH]c5ccccc45)C(=O)N[C@@H]([C@@H](C)O)C(=O)N3)NC2=O)C(=O)N[C@@H](CCCNC(=N)N)C(=O)N[C@@H](CC(C)C)C(=O)N[C@@H](Cc2c[nH]c3ccccc23)C(=O)N1)C(=O)O [compound 11] (H-YCQKWMWTCDSARKCCEGLVCRLWCKKK[αMeL]I-OH; disulfide 2-16, 9-21, 15-25) | 0.342 ± 0.073 | 0.01 ± 0.001 |
| CSCC[C@@H]1NC(=O)CNC(=O)[C@H](CCC(=O)O)NC(=O)[C@@H]2CSSC[C@H](NC(=O)[C@@H](N)Cc3ccc(O)cc3)C(=O)N[C@@H](CCC(N)=O)C(=O)N[C@@H](CCCCN)C(=O)N[C@@H](Cc3c[nH]c4ccccc34)C(=O)N[C@@H](CCSC)C(=O)N[C@@H](Cc3c[nH]c4ccccc34)C(=O)N[C@@H]([C@@H](C)O)C(=O)N[C@H]3CSSC[C@H](NC(=O)[C@H](C(C)C)NC1=O)C(=O)N[C@@H](CCCNC(=N)N)C(=O)N[C@@H](CC(C)C)C(=O)N[C@@H](Cc1c[nH]c4ccccc14)C(=O)N[C@H](C(=O)N[C@@H](CCCCN)C(=O)N[C@@H](CCCCN)C(=O)N[C@@H](CCCCN)C(=O)N[C@@H](CC(C)C)C(=O)N[C@@H](Cc1c[nH]c4ccccc14)C(=O)O)CSSC[C@H](NC(=O)[C@H](CCCCN)NC(=O)[C@H](CCCNC(=N)N)NC(=O)[C@H](C)NC(=O)[C@H](CO)NC(=O)[C@H](CC(=O)O)NC3=O)C(=O)N2 [compound 3] | 0.008 ± 0.002 | 0.0002 ± 3e-05 |
| CC[C@H](C)[C@H](NC(=O)[C@H](CC(C)C)N(C)C(=O)[C@H](CCCCN)NC(=O)[C@H](CCCCN)NC(=O)[C@H](CCCCN)NC(=O)[C@@H]1CSSC[C@@H]2NC(=O)[C@H](CCCCN)NC(=O)[C@H](CCCNC(=N)N)NC(=O)[C@H](C)NC(=O)[C@H](CO)NC(=O)[C@H](CC(=O)O)NC(=O)[C@@H]3CSSC[C@H](NC(=O)[C@H](C(C)C)NC(=O)[C@H](CC(C)C)NC(=O)CNC(=O)[C@H](CCC(=O)O)NC(=O)[C@H](CSSC[C@H](NC(=O)[C@@H](N)Cc4ccc(O)cc4)C(=O)N[C@@H](CCC(N)=O)C(=O)N[C@@H](CCCCN)C(=O)N[C@@H](Cc4c[nH]c5ccccc45)C(=O)N[C@@H](CCSC)C(=O)N[C@@H](Cc4c[nH]c5ccccc45)C(=O)N[C@@H]([C@@H](C)O)C(=O)N3)NC2=O)C(=O)N[C@@H](CCCNC(=N)N)C(=O)N[C@@H](CC(C)C)C(=O)N[C@@H](Cc2c[nH]c3ccccc23)C(=O)N1)C(=O)O [compound 12] (H-YCQKWMWTCDSARKCCEGLVCRLWCKKK[NMeL]I-OH; disulfide 2-16, 9-21, 15-25) | 0.138 ± 0.04 | 0.528 ± 0.1 |
